This note sets out measurements from paper PMC12040969, “Design, synthesis, in silico studies, and apoptotic antiproliferative activity of novel thiazole-2-acetamide derivatives as tubulin polymerization inhibitors” (Frontiers in Chemistry, 2025).

The nature of series [1]: Cell viability assay (MTT), normal cells. In kind it is cell-based. To be noted: human, MCF-10A normal mammary gland epithelial cells, four-day incubation. The method, then:
The impact of novel compounds 10a-o and 13a-e on cell viability was examined using the MCF-10A (human mammary gland epithelial) normal cell line. The MTT test was employed to assess the cell viability of the novel compounds after a four-day incubation with MCF-10A cells ([El-Sherief et al., 2019]; [Ramadan et al., 2020]).
The effects of compounds 10a-o and 13a-e on cell viability were assessed using the human mammary gland epithelial normal cell line (MCF-10A). The MTT assay assessed the cell viability of compounds 10a-o and 13a-e following a four-day incubation with MCF-10A cells ([El-Sherief et al., 2019]; [Ramadan et al., 2020]). Check Supplementary Appendix A for additional information.
4.2. Biological evaluation
4.2.1 Cell Viability assay (MTT assay)
MTT assay was performed to investigate the effect of the synthesized compounds on mammary epithelial cells (MCF-10A). The cells were propagated in medium consisting of Ham's F-12 medium/ Dulbecco's modified Eagle's medium (DMEM) (1:1) supplemented with 10% foetal calf serum, 2 mM glutamine, insulin (10 μg/mL), hydrocortisone (500 ng/mL) and epidermal growth factor (20 ng/mL). Trypsin ethylenediamine tetra acetic acid (EDTA) was used to passage the cells after every 2-3 days. 96-well flat-bottomed cell culture plates were used to seed the cells at a density of 10^4 cells mL-1. The medium was aspirated from all the wells of culture plates after 24 h followed by the addition of synthesized compounds (in 200 μL medium to yield a final concentration of 0.1% (v/v) dimethyl sulfoxide) into individual wells of the plates.
Four wells were designated to a single compound. The plates were allowed to incubate at 37°C for 96 h. Afterwards, the medium was aspirated and 3-[4,5-dimethylthiazol-2-yl]-2,5-diphenyltetrazolium bromide (MTT) (0.4 mg/mL) in medium was added to each well and subsequently incubated for 3 h. The medium was aspirated and 150 μL dimethyl sulfoxide (DMSO) was added to each well. The plates were vortexed followed by the measurement of absorbance at 540 nm on a microplate reader. The results were presented as inhibition (%) of proliferation in contrast to controls comprising 0.1%

For a further series, the system named is tubulin. The experiment in a line: Tubulin polymerization inhibition assay (Cytoskeleton kit).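 On all read-outs here: Cell-free tubulin polymerization read by fluorescent reporter enhancement over a 30 min reaction, with the compound-free kit control taken as 100% activity and inhibition relative to it.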 To be noted: for Tub %inh / Tub. enzyme inhibition assay %inhibition: 30 min; for Tub %inh: YB-EGY run; for Tub K.Activity: EC = 120, YB-EGY run; for IC50: read-out: Tubulin inhibition IC50 ± SEM, triplicate for each tested concentration; for Tub. enzyme inhibition assay %inhibition: codes 522-537 run; for Tub. enzyme inhibition assay K. Activity: control = 120, codes 522-537 run; for Tub. (IC50) IC50±SD: supplement raw data, lab codes.

A word on the viability: it is a per cent measure of how many cells are alive, often set against a control. The low end stands for more harm to the cells, the high end for less harm to the cells. Broadly, the IC50 is the point on the concentration scale where inhibition reaches its midpoint. In series [1], `Cc1nc(SCC(=O)Nc2nc(-c3ccccc3)cs2)sc1C(=O)/C=C/c1ccc(F)cc1` [Compound 10c, (E)-2-((5-(3-(4-fluorophenyl)acryloyl)-4-methylthiazol-2-yl)thio)-N-(4-phenylthiazol-2-yl)acetamide] showed a viability at 96 h, 50 µM of 89%. The Tub %inh in the series on tubulin (conc 0.1 (unit not given)) is 4.47%; in the series on tubulin (conc 1 (unit not given)) it was 12.4%; with tubulin (conc 10 (unit not given)) it was 25.6%; in the series on tubulin (conc 50 (unit not given)), 52.5%; in the series on tubulin (conc 100 (unit not given)), 83%. Also, the “Tub K.Activity” value with tubulin (conc 0.1 (unit not given)) turned out to be 114.64; with tubulin (conc 1 (unit not given)) it was 105.09; in the series with tubulin (conc 10 (unit not given)), 89.245; with tubulin (conc 50 (unit not given)), 56.999; with tubulin (conc 100 (unit not given)), 20.424. Further, the IC50 with tubulin is 22.5 ± 0.69 µM.

For `Cc1nc(SCC(=O)Nc2nc(-c3ccccc3)cs2)sc1C(=O)/C=C/c1ccc(Cl)cc1` [Compound 10b, (E)-2-((5-(3-(4-chlorophenyl)acryloyl)-4-methylthiazol-2-yl)thio)-N-(4-phenylthiazol-2-yl)acetamide], the viability at 96 h, 50 µM in series [1] amounted to 91%. Further, the Tub %inh in the series with tubulin (conc 0.1 (unit not given)) amounted to 5.79%; with tubulin (conc 1 (unit not given)) it was 23.9%; in the series on tubulin (conc 10 (unit not given)) it was 41.4%; with tubulin (conc 50 (unit not given)), 64.5%; in the series with tubulin (conc 100 (unit not given)), 88.7%. For the same molecule, the “Tub K.Activity” value with tubulin (conc 0.1 (unit not given)) is listed as 113.05; in the series on tubulin (conc 1 (unit not given)), 91.287; with tubulin (conc 10 (unit not given)), 70.334; in the series on tubulin (conc 50 (unit not given)) it was 42.629; in the series on tubulin (conc 100 (unit not given)), 13.577. For the same molecule, in the series on tubulin, the IC50 was found to be 8.75 ± 0.27 µM.

In turn, `Cc1ccc(/C=C/C(=O)c2sc(SCC(=O)Nc3nc(-c4ccc(C)cc4)cs3)nc2C)cc1` [Compound 10n, (E)-2-((4-methyl-5-(3-(p-tolyl)acryloyl)thiazol-2-yl)thio)-N-(4-(p-tolyl)thiazol-2-yl)acetamide] came in with a viability at 96 h, 50 µM in series [1] of 89%. In addition, the “Tub. enzyme inhibition assay %inhibition” value worked out at 2.01% with tubulin (conc 0.01 (unit not given)); 8.94% with tubulin (conc 0.1 (unit not given)); 26.1% with tubulin (conc 1 (unit not given)); 49.9% in the series with tubulin (conc 10 (unit not given)); 76.7% in the series with tubulin (conc 100 (unit not given)). Moreover, the “Tub. enzyme inhibition assay K. Activity” value with tubulin (conc 0.01 (unit not given)) amounted to 117.59; in the series with tubulin (conc 0.1 (unit not given)), 109.27; with tubulin (conc 1 (unit not given)), 88.73; in the series with tubulin (conc 10 (unit not given)), 60.139; with tubulin (conc 100 (unit not given)) it was 27.908. Moreover, the IC50 with tubulin is 16 ± 0.59 µM. In addition, in the series with tubulin, the “Tub. (IC50) IC50±SD” value was 8.075 ± 0.3 µg/mL.

`Cc1nc(SCC(=O)Nc2nccs2)sc1C(=O)/C=C/c1ccccc1` [Compound 13a, (E)-2-((5-cinnamoyl-4-methylthiazol-2-yl)thio)-N-(thiazol-2-yl)acetamide] gave a viability at 96 h, 50 µM in series [1] of 89%. Besides, the Tub %inh with tubulin (conc 0.1 (unit not given)) is 5.68%; in the series with tubulin (conc 1 (unit not given)), 16.6%; in the series on tubulin (conc 10 (unit not given)), 32.4%; in the series with tubulin (conc 50 (unit not given)) it was 62.4%; in the series on tubulin (conc 100 (unit not given)), 78.7%. The “Tub K.Activity” value in the series on tubulin (conc 0.1 (unit not given)) was found to be 113.18; in the series with tubulin (conc 1 (unit not given)), 100.09; with tubulin (conc 10 (unit not given)), 81.141; in the series on tubulin (conc 50 (unit not given)) it was 45.076; in the series with tubulin (conc 100 (unit not given)), 25.608. Further, in the series on tubulin, the IC50 worked out at 15.8 ± 0.48 µM.

Consider `Cc1ccc(/C=C/C(=O)c2sc(SCC(=O)Nc3nc(-c4ccc(Cl)cc4)cs3)nc2C)cc1` [Compound 10i, (E)-N-(4-(4-chlorophenyl)thiazol-2-yl)-2-((4-methyl-5-(3-(p-tolyl)acryloyl)thiazol-2-yl)thio)acetamide], for which the viability at 96 h, 50 µM in series [1] came to 91%. In addition, the “Tub. enzyme inhibition assay %inhibition” value in the series with tubulin (conc 0.01 (unit not given)) turned out to be 1.51%; in the series with tubulin (conc 0.1 (unit not given)), 5.52%; in the series with tubulin (conc 1 (unit not given)), 19.3%; with tubulin (conc 10 (unit not given)), 41.3%; with tubulin (conc 100 (unit not given)) it was 72.1%. Further, the “Tub. enzyme inhibition assay K. Activity” value came out at 118.18 in the series on tubulin (conc 0.01 (unit not given)); 113.37 in the series with tubulin (conc 0.1 (unit not given)); 96.892 in the series with tubulin (conc 1 (unit not given)); 70.409 with tubulin (conc 10 (unit not given)); 33.442 in the series with tubulin (conc 100 (unit not given)). Besides, the 50% inhibitory concentration (IC50) in the series with tubulin was found to be 33.5 ± 1.21 µM. Moreover, the “Tub. (IC50) IC50±SD” value with tubulin came to 17.63 ± 0.64 µg/mL.

On to `COc1ccc(/C=C/C(=O)c2sc(SCC(=O)Nc3nccs3)nc2C)cc1` [Compound 13e, (E)-2-((5-(3-(4-methoxyphenyl)acryloyl)-4-methylthiazol-2-yl)thio)-N-(thiazol-2-yl)acetamide], for which the viability at 96 h, 50 µM in series [1] worked out at 91%. Moreover, the Tub %inh in the series on tubulin (conc 0.1 (unit not given)) was 7.07%; in the series with tubulin (conc 1 (unit not given)), 16.4%; with tubulin (conc 10 (unit not given)), 26.3%; in the series with tubulin (conc 50 (unit not given)) it was 41.7%; with tubulin (conc 100 (unit not given)), 75.9%. The “Tub K.Activity” value in the series on tubulin (conc 0.1 (unit not given)) came out at 111.52; in the series on tubulin (conc 1 (unit not given)) it was 100.36; in the series with tubulin (conc 10 (unit not given)), 88.403; with tubulin (conc 50 (unit not given)), 69.965; in the series on tubulin (conc 100 (unit not given)), 28.968. For the same molecule, in the series with tubulin, the IC50 stood at 39.9 ± 1.22 µM.

`Cc1nc(SCC(=O)Nc2nc(-c3ccc(Cl)cc3)cs2)sc1C(=O)/C=C/c1ccc(Cl)cc1` [Compound 10g, (E)-2-((5-(3-(4-chlorophenyl)acryloyl)-4-methylthiazol-2-yl)thio)-N-(4-(4-chlorophenyl)thiazol-2-yl)acetamide]: the viability at 96 h, 50 µM in series [1] was 89%. Besides, the “Tub. enzyme inhibition assay %inhibition” value in the series with tubulin (conc 0.01 (unit not given)) came to 0.65%; in the series with tubulin (conc 0.1 (unit not given)), 5.24%; with tubulin (conc 1 (unit not given)) it was 15.3%; in the series with tubulin (conc 10 (unit not given)), 32.3%; with tubulin (conc 100 (unit not given)), 70.5%. In addition, the “Tub. enzyme inhibition assay K. Activity” value was 119.22 in the series with tubulin (conc 0.01 (unit not given)); 113.71 in the series with tubulin (conc 0.1 (unit not given)); 101.63 in the series with tubulin (conc 1 (unit not given)); 81.206 with tubulin (conc 10 (unit not given)); 35.432 in the series with tubulin (conc 100 (unit not given)). Further, in the series with tubulin, the IC50 is 59.4 ± 3.78 µM. Also, the “Tub. (IC50) IC50±SD” value in the series on tubulin was 32.45 ± 2.07 µg/mL.

As for `Cc1ccc(-c2csc(NC(=O)CSc3nc(C)c(C(=O)/C=C/c4ccc(Cl)cc4)s3)n2)cc1` [Compound 10l, (E)-2-((5-(3-(4-chlorophenyl)acryloyl)-4-methylthiazol-2-yl)thio)-N-(4-(p-tolyl)thiazol-2-yl)acetamide], the viability at 96 h, 50 µM in series [1] amounted to 89%. Besides, the “Tub. enzyme inhibition assay %inhibition” value in the series with tubulin (conc 0.01 (unit not given)) was 1.85%; in the series with tubulin (conc 0.1 (unit not given)) it was 10.9%; in the series with tubulin (conc 1 (unit not given)), 24.6%; in the series with tubulin (conc 10 (unit not given)), 49.3%; in the series with tubulin (conc 100 (unit not given)) it was 79.5%. Further, the “Tub. enzyme inhibition assay K. Activity” value in the series with tubulin (conc 0.01 (unit not given)) was 117.78; in the series with tubulin (conc 0.1 (unit not given)), 106.95; in the series on tubulin (conc 1 (unit not given)) it was 90.43; in the series with tubulin (conc 10 (unit not given)), 60.835; with tubulin (conc 100 (unit not given)), 24.585. Besides, in the series with tubulin, the IC50 was 13.9 ± 0.51 µM. Also, the “Tub. (IC50) IC50±SD” value with tubulin was 7.331 ± 0.27 µg/mL.
